The nature of this test: Clinical trial in patients receiving pelvic radiotherapy (radiation enteritis). The test is classed as in vivo, human. Particulars: once daily, 10 days, with conventional radiotherapy.
The mark [1] stands for this setting: number of patients of 50 per group.

On to `CC(O)C(=O)[O-].CC(O)C(=O)[O-].[Ca+2]` (stereo not shown) [对比例2, 乳酸钙], for which the total effective rate (50 patients per group) worked out at 4%. Moreover, under setting [1], the cured came out at 0, the improved is 2 and the ineffective is recorded as 48.

These data come from patent CN106420773A, “一种治疗放射性肠炎的中西药组合物及其制备方法和应用” (Zhengzhou Lidiya Medicine Technology Co Ltd, priority 2016, dated 2017).
